Data taken from patent publication US20210315840A1, “SOLID ORAL DOSAGE FORMS OF KETAMINE DERIVATIVES” (priority 2017, published 2021).

What was measured:
[1] = test system: cryopreserved hepatocytes; assay: Hepatocyte stability assay, dog; details: 3 μM
Method: (§3) Test compound (3 μM) was incubated with cryopreserved hepatocytes in suspension. Samples are removed at 6 time points over the course of 120 minutes and analysed by LC-MS/MS.

[2] = test system: cryopreserved hepatocytes; assay: Hepatocyte stability assay, human
Method: as §3

UGT2B7 = UGT2B7 (Homo sapiens, UniProt P16662); assay: UGT inhibition assay UGT2B7; format: in vitro ADME
[3] = test system: α-amino-3-hydroxy-5-methyl-4-isoxazolepropionic acid receptor (AMPAR)-mediated currents; assay: In vitro electrophysiology, field excitatory postsynaptic potentials; details: estimated
Method: The free (unbound) concentration of 2R,6R-hydroxynorketamine producing pharmacodynamics activity in the brain is estimated to be approximately 10 μM.

CYP1A2 = biological target: T1, CYP1A2 (Homo sapiens, UniProt P05177); assay: CYP inhibition assay CYP1A2; format: in vitro ADME
T1 sequence (P05177 1-516): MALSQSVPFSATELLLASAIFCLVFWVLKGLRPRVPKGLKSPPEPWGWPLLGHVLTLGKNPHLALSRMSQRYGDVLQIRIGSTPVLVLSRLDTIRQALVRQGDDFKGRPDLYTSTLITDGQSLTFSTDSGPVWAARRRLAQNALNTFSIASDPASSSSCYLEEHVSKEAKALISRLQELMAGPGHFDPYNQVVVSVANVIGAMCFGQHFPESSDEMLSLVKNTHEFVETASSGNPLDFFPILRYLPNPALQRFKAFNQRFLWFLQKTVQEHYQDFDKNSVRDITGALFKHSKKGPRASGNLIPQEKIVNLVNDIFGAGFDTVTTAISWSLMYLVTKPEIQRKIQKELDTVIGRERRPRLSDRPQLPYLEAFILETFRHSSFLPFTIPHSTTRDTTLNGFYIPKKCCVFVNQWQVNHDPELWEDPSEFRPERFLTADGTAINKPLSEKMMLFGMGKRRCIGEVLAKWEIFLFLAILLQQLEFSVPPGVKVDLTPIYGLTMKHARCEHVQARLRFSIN
Source text: (§1) Cytochrome P450s (CYPs) are a family of enzymes that play a primary role in the metabolism of a wide variety of drugs. 2R,6R-hydroxynorketamine was investigated for its potential to inhibit the action of 7 key CYP enzymes using an inhibition assay measuring reduction in the formation of metabolites compared to control.

UGT1A1 = UGT1A1 (Homo sapiens, UniProt P22309); assay: UGT inhibition assay UGT1A1; format: in vitro ADME
Source text: 2R,6R-hydroxynorketamine was therefore investigated for its potential to inhibit this isozyme, along with that of the major UGT isozyme, UGT1A1, using a UGT inhibition assay.

CYP2B6 = biological target: T2, CYP2B6 (Homo sapiens, UniProt P20813); assay: CYP inhibition assay CYP2B6; format: in vitro ADME
T2 sequence (P20813 1-491): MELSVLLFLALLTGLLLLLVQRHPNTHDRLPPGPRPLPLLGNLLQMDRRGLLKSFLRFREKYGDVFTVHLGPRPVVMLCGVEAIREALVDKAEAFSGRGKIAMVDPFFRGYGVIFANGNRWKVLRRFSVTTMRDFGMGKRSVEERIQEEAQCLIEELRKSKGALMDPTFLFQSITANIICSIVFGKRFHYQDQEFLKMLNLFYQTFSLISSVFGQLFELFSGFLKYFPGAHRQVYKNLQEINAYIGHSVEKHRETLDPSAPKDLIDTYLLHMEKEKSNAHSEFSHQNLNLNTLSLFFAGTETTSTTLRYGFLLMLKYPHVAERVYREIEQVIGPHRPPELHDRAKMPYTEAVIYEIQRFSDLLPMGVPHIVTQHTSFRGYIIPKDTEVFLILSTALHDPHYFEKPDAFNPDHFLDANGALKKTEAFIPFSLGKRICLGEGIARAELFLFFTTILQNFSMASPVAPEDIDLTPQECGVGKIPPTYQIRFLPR
Source text: as §1

[4] = biological target: norepinephrine transporter (Homo sapiens, UniProt P23975); assay: Binding assay norepinephrine transporter
Source text: (§2) 2R,6R-hydroxynorketamine was investigated for binding to monoamine oxidases A and B, monoamine transporters, as well as a variety of 5HT receptors.

CYP2C9 = CYP2C9 (Homo sapiens, UniProt P11712); assay: CYP inhibition assay CYP2C9; format: in vitro ADME
Source text: as §1

5-HT1A = biological target: T3, 5-HT1A (Homo sapiens, UniProt P08908); assay: Binding assay 5-HT1A
T3 sequence (P08908 1-422): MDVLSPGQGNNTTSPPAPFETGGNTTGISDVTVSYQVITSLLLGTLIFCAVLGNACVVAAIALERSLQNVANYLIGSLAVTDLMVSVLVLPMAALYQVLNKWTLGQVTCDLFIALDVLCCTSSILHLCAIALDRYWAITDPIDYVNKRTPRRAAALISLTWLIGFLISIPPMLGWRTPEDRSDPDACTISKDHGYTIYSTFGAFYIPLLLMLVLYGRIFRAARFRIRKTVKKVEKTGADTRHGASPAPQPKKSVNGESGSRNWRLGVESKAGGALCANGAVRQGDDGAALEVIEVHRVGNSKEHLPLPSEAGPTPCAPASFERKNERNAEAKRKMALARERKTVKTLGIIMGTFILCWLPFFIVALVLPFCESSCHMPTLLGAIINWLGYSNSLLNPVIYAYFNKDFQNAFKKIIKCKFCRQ
Source text: as §2

5-HT transporter = 5-HT transporter (Homo sapiens, UniProt P31645); assay: Binding assay 5-HT transporter
Source text: as §2

5-HT1, Non-Selective = assay: Binding assay 5-HT1, Non-Selective
Source text: as §2
An absence of interaction between 2R,6R-hydroxynorketamine and 5HT1 receptors is also of note. Rare postmarketing reports have described patients with weakness, hyperreflexia, and incoordination following the use of an SSRI and the 5HT1 agonist, sumatriptan. The possibility of such interactions should also be considered if other 5HT1 agonists are to be used in combination with SSRIs.

Chain of CYP2C9 (P11712 whole entry): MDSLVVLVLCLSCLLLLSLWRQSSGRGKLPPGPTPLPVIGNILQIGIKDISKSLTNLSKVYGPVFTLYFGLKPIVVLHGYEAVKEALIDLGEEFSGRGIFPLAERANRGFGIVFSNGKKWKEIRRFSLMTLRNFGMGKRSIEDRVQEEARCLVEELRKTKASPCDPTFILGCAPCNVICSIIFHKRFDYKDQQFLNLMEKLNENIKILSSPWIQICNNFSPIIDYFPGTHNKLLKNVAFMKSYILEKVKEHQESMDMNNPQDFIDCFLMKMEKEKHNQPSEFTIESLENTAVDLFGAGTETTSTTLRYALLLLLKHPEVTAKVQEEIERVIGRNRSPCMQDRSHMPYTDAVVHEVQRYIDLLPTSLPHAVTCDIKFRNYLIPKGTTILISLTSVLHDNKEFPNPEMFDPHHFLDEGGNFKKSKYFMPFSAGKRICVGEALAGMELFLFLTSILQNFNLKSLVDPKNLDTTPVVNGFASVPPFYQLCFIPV
Chain of 5-HT transporter (P31645 whole entry, species assumed): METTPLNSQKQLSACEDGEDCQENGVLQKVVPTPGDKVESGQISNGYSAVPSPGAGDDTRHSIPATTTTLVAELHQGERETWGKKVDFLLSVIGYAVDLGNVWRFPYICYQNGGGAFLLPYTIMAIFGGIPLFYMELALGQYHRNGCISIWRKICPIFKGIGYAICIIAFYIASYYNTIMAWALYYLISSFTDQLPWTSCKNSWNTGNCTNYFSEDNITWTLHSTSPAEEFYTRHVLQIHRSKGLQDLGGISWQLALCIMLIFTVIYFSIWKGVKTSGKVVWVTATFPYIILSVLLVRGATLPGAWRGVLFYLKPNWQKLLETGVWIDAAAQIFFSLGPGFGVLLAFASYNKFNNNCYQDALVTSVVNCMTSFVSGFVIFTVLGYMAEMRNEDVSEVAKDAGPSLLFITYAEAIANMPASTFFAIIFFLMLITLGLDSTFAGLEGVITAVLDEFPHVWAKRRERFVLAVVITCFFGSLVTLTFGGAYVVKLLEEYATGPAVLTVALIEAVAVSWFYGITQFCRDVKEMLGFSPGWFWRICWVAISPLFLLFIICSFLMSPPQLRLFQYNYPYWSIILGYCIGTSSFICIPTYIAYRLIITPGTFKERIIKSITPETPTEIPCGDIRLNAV
Chain of norepinephrine transporter (P23975 whole entry, species assumed): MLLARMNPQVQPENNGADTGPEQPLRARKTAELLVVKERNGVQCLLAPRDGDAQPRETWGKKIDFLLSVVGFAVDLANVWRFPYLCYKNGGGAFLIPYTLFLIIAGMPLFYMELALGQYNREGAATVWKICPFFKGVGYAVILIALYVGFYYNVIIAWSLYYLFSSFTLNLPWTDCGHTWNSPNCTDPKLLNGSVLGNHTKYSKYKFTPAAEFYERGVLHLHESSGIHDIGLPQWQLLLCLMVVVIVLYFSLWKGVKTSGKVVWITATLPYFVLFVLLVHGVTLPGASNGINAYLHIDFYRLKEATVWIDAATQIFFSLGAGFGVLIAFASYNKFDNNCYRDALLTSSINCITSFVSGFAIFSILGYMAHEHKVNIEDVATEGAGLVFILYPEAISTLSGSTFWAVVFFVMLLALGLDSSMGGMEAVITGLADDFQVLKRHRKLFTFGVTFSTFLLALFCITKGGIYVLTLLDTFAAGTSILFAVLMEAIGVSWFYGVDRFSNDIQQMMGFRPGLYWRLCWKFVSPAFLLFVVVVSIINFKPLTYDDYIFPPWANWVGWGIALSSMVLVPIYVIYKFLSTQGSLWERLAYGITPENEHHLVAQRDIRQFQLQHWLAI
Chain of UGT1A1 (P22309 26-533): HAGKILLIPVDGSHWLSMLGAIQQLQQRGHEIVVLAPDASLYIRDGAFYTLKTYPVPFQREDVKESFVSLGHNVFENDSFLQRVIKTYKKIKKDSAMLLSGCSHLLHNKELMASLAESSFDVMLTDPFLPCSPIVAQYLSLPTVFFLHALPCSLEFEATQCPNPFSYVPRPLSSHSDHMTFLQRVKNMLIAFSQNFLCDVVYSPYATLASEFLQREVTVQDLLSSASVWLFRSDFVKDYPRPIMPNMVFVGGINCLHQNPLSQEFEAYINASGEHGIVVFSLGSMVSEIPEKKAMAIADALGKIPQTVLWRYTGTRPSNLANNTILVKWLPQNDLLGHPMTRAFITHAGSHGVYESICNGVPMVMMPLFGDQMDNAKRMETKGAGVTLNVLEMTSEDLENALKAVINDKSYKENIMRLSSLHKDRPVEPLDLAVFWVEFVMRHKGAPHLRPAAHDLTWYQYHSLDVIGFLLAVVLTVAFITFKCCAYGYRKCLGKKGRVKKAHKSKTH
Chain of UGT2B7 (P16662 24-529): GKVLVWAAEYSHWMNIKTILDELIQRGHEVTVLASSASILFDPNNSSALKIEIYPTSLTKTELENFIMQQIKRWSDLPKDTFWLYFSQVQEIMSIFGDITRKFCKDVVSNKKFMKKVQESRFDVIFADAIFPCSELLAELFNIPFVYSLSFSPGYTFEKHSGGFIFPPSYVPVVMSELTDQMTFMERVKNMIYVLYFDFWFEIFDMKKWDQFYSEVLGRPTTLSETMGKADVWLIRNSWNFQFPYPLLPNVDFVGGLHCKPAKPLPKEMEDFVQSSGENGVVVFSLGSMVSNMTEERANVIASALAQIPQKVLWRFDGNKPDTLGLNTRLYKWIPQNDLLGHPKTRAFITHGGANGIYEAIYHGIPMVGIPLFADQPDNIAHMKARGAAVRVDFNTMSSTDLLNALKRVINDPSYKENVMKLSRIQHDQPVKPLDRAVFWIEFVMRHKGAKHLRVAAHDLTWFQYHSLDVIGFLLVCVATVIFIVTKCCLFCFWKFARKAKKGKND

For `N[C@@]1(c2ccccc2Cl)CCC[C@@H](O)C1=O` [2R,6R-hydroxynorketamine, 2R,6R-2-(2-Chlorophenyl)-2-(amino)-6-hydroxycyclohexanone], the CLint [1] was 4.72 μL/min/10^6 cells, the t1/2 [1] was 4.9 h and the “hepatic clearance in humans (in words)” value [2] was “does not undergo hepatic clearance”. For the same molecule, the “inhibition of UGT2B7 (in words)” value (UGT2B7) was “does not inhibit”, the “free (unbound) concentration producing pharmacodynamics activity in the brain, sufficient to increase fEPSPs” value [3] was “approximately 10 μM” and the IC50 (CYP1A2) was about 100 µM. For the same molecule, the “% Inhibition” value (CYP1A2; 0.4 μM) was 7.55%, the “% Inhibition” value (CYP1A2; 1 μM) was 8.80% and the “% Inhibition” value (CYP1A2; 4 μM) was 11.7%. The “% Inhibition” value (CYP1A2; 10 μM) was 19.3%, the “% Inhibition” value (CYP1A2; 40 μM) was 24.8% and the “% Inhibition” value (CYP1A2; 100 μM) was 48.6%. The “inhibition of UGT1A1 (in words)” value (UGT1A1) was “does not inhibit”, the “inhibition of CYP2B6 (in words)” value (CYP2B6) was “did not inhibit” and the “% Inhibition” value (CYP2B6; 0.4 μM) was 6.03%. The “% Inhibition” value (CYP2B6; 1 μM) was 10.1%, the “% Inhibition” value (CYP2B6; 4 μM) was 10.6% and the “% Inhibition” value (CYP2B6; 10 μM) was 14.4%. For the same molecule, the “% Inhibition” value (CYP2B6; 40 μM) was 14.8%, the “% Inhibition” value (CYP2B6; 100 μM) was 16.7% and the “% Inhibition of Control Specific Binding” value [4] was −16%. For the same molecule, the “% of Control Specific Binding” value [4] was 117.6%, the “inhibition of CYP2C9 (in words)” value (CYP2C9) was “did not inhibit” and the “% Inhibition” value (CYP2C9; 0.4 μM) was 4.59%. For the same molecule, the “% Inhibition” value (CYP2C9; 1 μM) was 5.92%, the “% Inhibition” value (CYP2C9; 4 μM) was 5.80% and the “% Inhibition” value (CYP2C9; 10 μM) was 11.9%. The “% Inhibition” value (CYP2C9; 40 μM) was −0.113%, the “% Inhibition” value (CYP2C9; 100 μM) was −1.33% and the “% Inhibition of Control Specific Binding” value (5-HT1A) was 5%. For the same molecule, the “% of Control Specific Binding” value (5-HT1A) was 97.9%, the “binding to 5HT1A receptor subtype (in words)” value (5-HT1A) was “does not bind” and the “% Inhibition of Control Specific Binding” value (5-HT transporter) was 2%. The “% of Control Specific Binding” value (5-HT transporter) was 102.0%, the “% Inhibition of Control Specific Binding” value (5-HT1, Non-Selective) was −9% and the “% of Control Specific Binding” value (5-HT1, Non-Selective) was 105.4%. The “binding to 5HT1 receptors (in words)” value (5-HT1, Non-Selective) was “does not bind”.
